In PMC11346435, “Regulation of Rubisco activity by interaction with chloroplast metabolites” (Biochemical Journal, 2024):
Read-outs that look alike come from different tables or passages of the source.

Legend:
[1] = target: T1, Rubisco (ribulose-1,5-bisphosphate carboxylase/oxygenase), carbamylated rice enzyme (Oryza sativa, UniProt P0C512); assay: […]CO2 incorporation assay with purified Rubisco, dose-response and Vmax/Km kinetics; type: biochemical; conditions: read-out: % inhibition at 0.3 μM
T1 construct: gene rbcL; Rubisco purified from rice leaves (cv. Nipponbare), L8S8 complex, carbamylated; with Rubisco small subunit (L8S8 holoenzyme)
T1 sequence (Q0INY7 47-175, other chains not shown): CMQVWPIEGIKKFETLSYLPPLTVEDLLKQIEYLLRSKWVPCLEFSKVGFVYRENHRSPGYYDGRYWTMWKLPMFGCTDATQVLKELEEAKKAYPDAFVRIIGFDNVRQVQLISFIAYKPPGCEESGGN

[2] = target: T1, Rubisco (ribulose-1,5-bisphosphate carboxylase/oxygenase), carbamylated rice enzyme; assay: biochemical; parameters: 14CO2 incorporation by purified activated rice Rubisco; apparent Ki from Michaelis-Menten kinetics; conditions: noncompetitive-like, apparent Ki
Protocol: Water was used as control and for each metabolite an intermediate and the highest concentration were used, with the exceptions of CABP for which the maximum concentration was 0.2 µM (as at the maximum concentration 0.3 µM the activity was very low) and for 3-PGA we used 8 and 12 mM (as these were the concentrations that affected Rubisco activity under saturating substrate concentrations). Basic assay buffer (100 mM Bicine-NaOH, pH 8.2, 20 mM MgCl2 and 2 mM KH2PO4) was sparged with compressed air which passed through soda lime and 1 M NaOH to remove CO2. […] The incubation with metabolite and activity were performed as described above. Vmax and Km were calculated using the Michaelis-Menten equation [58]. […] The incubation and activity were performed as described above and the activity was expressed as % of control samples (where control is 100%). Given the constraints associated with two substrate Rubisco activity and its interaction with tight binding inhibitions, we used a simplistic approximation to estimate apparent inhibitor constants (Kiapp) based on the Michaelis-Menten equations [59] (eqn 1) and on the ‘quotient velocity plot’ [60] (eqn 2). Where [I] is the inhibitor concentration and α was estimated according to the inhibition type: […]

[3] = target: T1, Rubisco (ribulose-1,5-bisphosphate carboxylase/oxygenase), carbamylated rice enzyme; assay: […]CO2 incorporation assay with purified Rubisco, dose-response and Vmax/Km kinetics (competitive inhibition); type: biochemical; conditions: read-out: % inhibition at 12 mM
[4] = test system: O=C(COP(=O)(O)O)[C@H](O)[C@H](O)COP(=O)(O)O; assay: purified protein; conditions: Mg2+; carbamylated Lys201 (activator CO2) catalytic site
[5] = target: T1, Rubisco (ribulose-1,5-bisphosphate carboxylase/oxygenase), carbamylated rice enzyme; assay: […]CO2 incorporation assay with purified Rubisco, dose-response and Vmax/Km kinetics; type: biochemical
[6] = Eq. 1 (Michaelis-Menten), read-out: Ki^app (Eq. 1)
[7] = Eq. 2 (quotient velocity plot), read-out: Ki^app (Eq. 2)

| Compound | Ki [2, 6] | Ki [2, 7] | further results |
| --- | --- | --- | --- |
| O=C(O)[C@@](O)(COP(=O)(O)O)[C@H](O)[C@H](O)COP(=O)(O)O [CABP] | 120 ± 20 nM | 100 ± 20 nM | inhibition at 0.3 µM [1]: ~86% |
| O=C(O)[C@H](O)COP(=O)(O)O [3-PGA] |  |  | inhibition at 12000 µM [3]: ~30% |
| Rubisco (ribulose-1,5-bisphosphate carboxylase/oxygenase), carbamylated rice enzyme (Oryza sativa Japonica Group) |  |  | Km [4]: 78.08 ± 3.29 µM |
| O=C(O)[C@@](O)(COP(=O)(O)O)[C@H](O)[C@H](O)CO [CA1P] | 440 ± 80 nM | 440 ± 10 nM | 14CO2 incorporation assay with purified Rubisco, dose-response and Vmax/Km kinet [5]: activity decreases by half at 0.3 |
